Assay results reported in article PMC3238500 (Archives of biochemistry and biophysics, 2011).
Read-outs that look alike come from different tables or passages of the source.

Assays:
[1] = target: T1, pyruvate carboxylase (RePC) (Rhizobium etli, UniProt Q2K340); assay: Stopped-flow fluorescence kinetics of MgTNP-ATP binding to pyruvate carboxylase; conditions: for kobs1 (fast phase of binding) / kobs2 (intermediate phase of binding): 0.5 μM enzyme, double exponential fit; for k-2 / K2 (equilibrium constant between two conformational states, k-2/k2) / k2: intermediate phase
[2] = target: T1, pyruvate carboxylase (RePC); format: biochemical
[3] = target: T1, pyruvate carboxylase (RePC); format: biochemical; remark: listed apart in the source
[4] = target: T1, pyruvate carboxylase (RePC); format: binding

Compound: Nc1ncnc2c1ncn2[C@@H]1O[C@H](COP(=O)(O)OP(=O)(O)OP(=O)(O)O)[C@H]2OC3(O[C@H]21)C([N+](=O)[O-])=CC(=[N+]([O-])[O-])C=C3[N+](=O)[O-] (stereo partly drawn) [MgTNP-ATP, 2′,3′-O-(2,4,6-trinitrophenyl) adenosine 5′-triphosphate]
- half time of the slowest phase of the binding kinetics [1]: about 20 sec
- kobs1 (fast phase of binding) ([1]; 10 μM MgTNP-ATP, Fig. 8a): 234 ± 26 s⁻¹
- kobs2 (intermediate phase of binding) ([1]; 10 μM MgTNP-ATP, Fig. 8a): 11 ± 1 s⁻¹
- k (slow phase of binding) ([1]; 20 μM MgTNP-ATP, single exponential fit, Fig. 8c): 0.035 ± 0.001 s⁻¹
- kobs1 (fast phase of binding) ([1]; 35 μM MgTNP-ATP, Fig. 8b): 475 ± 90 s⁻¹
- kobs2 (intermediate phase of binding) ([1]; 35 μM MgTNP-ATP, Fig. 8b): 19 ± 2 s⁻¹
- observed first order rate constant, slow phase of binding ([1]; average value across all concentrations of MgTNP-ATP): 0.035 ± 0.008 s⁻¹
- k1 ([1]; fast phase, fit to eq (vi)): 0.20 ± 0.01 μM^-2s^-1
- k2 (intermediate phase) as percentage of k1 (fast phase) ([1]; fit to equation (ix)): 5.9%
- k-2 (intermediate phase) as percentage of k-1 (fast phase) ([1]; fit to equation (ix)): 6.6%
- k-2 ([1]; fit to eq (ix)): 10.6 ± 0.2 s⁻¹
- K2 (equilibrium constant between two conformational states, k-2/k2) ([1]; fit to eq (vii)): 0.02 ± 0.02
- k2 ([1]; fit to eq (vii)): 31 ± 1 s⁻¹
- k-2 ([1]; fit to eq (vii)): 0.6 ± 0.6 s⁻¹
- K2 (equilibrium constant between two conformational states, k-2/k2) ([1]; fit to eq (viii)): 0.47 ± 0.05
- k2 ([1]; fit to eq (viii)): 22.6 ± 0.7 s⁻¹
- k-2 ([1]; fit to eq (viii)): 10.5 ± 0.2 s⁻¹
- k-2 ([1]; fit to eq (x)): 12.6 ± 0.2 s⁻¹
- k2 ([1]; fit to eq (xi)): 0.013 ± 0.001μM^-2s^-1
- k-2 ([1]; fit to eq (xi)): 12.7 ± 0.2 s⁻¹
- k2 ([1]; fit to eq (xii)): 0.016 ± 0.001 μM^-2 s^-1
- k-2 ([1]; fit to eq (xii)): 13.5 ± 0.3 s⁻¹
- kcat2 for the activation by MgTNP-ATP ([2]; absence of acetyl CoA, fit to equation (i), Fig. 4c): 1.9 ± 0.1 s⁻¹
- nt (Hill coefficient) ([2]; activation by MgTNP-ATP in the absence of acetyl CoA, fit to equation (i), Fig. 4c): 2.3 ± 0.6
- nt (Hill coefficient) ([2]; activation by MgTNP-ATP, global fit to equation (ii), Fig. 4b): 2.5 ± 0.4
- substrate in the overall pyruvate carboxylation reaction ([2]; concentrations up to 0.25 mM): not found to be a substrate
- kcat2 for the reaction activated by MgTNP-ATP ([2]; global fit to equation (ii), Fig. 4b): 2.0 ± 0.5 s⁻¹

Compound: CC(=O)SCCNC(=O)CCNC(=O)[C@H](O)C(C)(C)COP(=O)(O)OP(=O)(O)OC[C@H]1O[C@@H](n2cnc3c(N)ncnc32)[C@H](O)[C@@H]1OP(=O)(O)O [acetyl CoA]
- increase in the turnover number for ATP cleavage ([3]; induced by acetyl CoA when MgATP is present up to 1 mM (data not shown)): 7 fold
- decrease in maximum fluorescence intensity ([4]; addition of 0.25 mM acetyl CoA to 5 μM MgTNP-ATP + 10 μM enzyme): approximately 32%
- n (Hill coefficient) ([2]; activation by acetyl CoA, fit to equation (i), Fig. 4a): 2.6 ± 0.2
- Ka (activation constant) ([2]; activation by acetyl CoA, fit to equation (i), Fig. 4a, 30°C, pH 7.8): 6.9 ± 0.2 µM
- kcat2 ([2]; saturating acetyl CoA, fit to equation (i), Fig. 4a): 20.2 ± 0.1 s⁻¹

Compound: Nc1ncnc2c1ncn2[C@@H]1O[C@H](COP(=O)(O)OP(=O)([O-])OP(=O)([O-])O)[C@@H](O)[C@H]1O.[Mg+2] [MgATP]
- effect on kinetics of MgTNP-ATP binding ([1]; 1 mM MgATP in both syringes, 10 μM MgTNP-ATP): essentially identical
- Hill coefficient ([3]; activation by MgATP, absence of acetyl CoA, Fig. 6b): 3.1 ± 0.5
- increase in activity ([3]; between 2 mM and saturating MgATP, absence of acetyl CoA): approximately 16 fold
- apparent Ka (activation of ATP cleavage) ([3]; super-catalytic MgATP, absence of acetyl CoA, fit to equation (iv), Fig. 6b): 5.0 ± 0.4 mM
- further decrease in fluorescence ([4]; addition of 2.5 mM MgATP to 5 μM MgTNP-ATP + 10 μM enzyme + 0.25 mM acetyl CoA): approximately 13%
- Km ([2]; MgATP varied, absence of acetyl CoA, fit to equation (iii), Fig. 6a): 150 ± 20 µM
- Ki ([2]; read-out: Ki (substrate inhibition), MgATP varied, absence of acetyl CoA, fit to equation (iii), Fig. 6a): 8.9 ± 1.2 mM
